# Data reported in US5760087A, “Glycylanilide derivatives, their preparation and their application in therapy” (Pierre Fabre Medicament, priority 1995, dated 1998).
# Columns and labels:
# [1] = test system: plasma cholesterol; experiment: Hypocholesterolemic activity in rats on hypercholesterolemic diet; assay type: in vivo; details: Rattus norvegicus; male rats, oral, 4 days, Altromin C 1061 hypercholesterolemic diet; plasma cholesterol on day 5 after 16 h fast; read-out: ED50 (dose which reduces the plasma cholesterol concentration by half relative to control animals)
# Method: 2) Hypocholesterolemic Activity
# Male rats (160-180 g) are subjected for 4 days to an Altromin C 1061 hypercholesterolemic diet, and concomitantly treated orally with the compounds suspended in carboxymethylcellulose at a concentration of 1%.
# On day 5, the animals, fasted for 16 hours, are anesthetized with ethyl ether and exsanguinated by drawing blood at the abdominal aorta onto EDTA.
# The blood is immediately centrifuged and the plasma stored at 4° C.
# Plasma cholesterol is then assayed by the CHOP-PAP method (Boehringer-Mannheim Ref. 237574).
# The median effective dose (ED50) corresponds to the dose which reduces the plasma cholesterol concentration by half relative to control animals.
# [2] = test system: hepatic microsomal lipids (rat liver microsomes); experiment: Antioxidant activity: chemical peroxidation of rat liver microsomes (T.BARS); assay type: biochemical; details: Fe3+/ADP/dihydroxyfumaric acid
# Excerpt: In the presence of Fe^3+ and ADP, dihydroxyfumaric acid undergoes an autoxidation which generates oxygen free radicals. The latter bring about the peroxidation of hepatic microsomal lipids.
# [3] = test system: Human LDL; experiment: Antioxidant activity: oxidation of LDL by CuSO4 (T.BARS); assay type: biochemical; details: 4.5 μM CuSO4, 6 hours incubation, T.BARS at 532 nm
# [4] = biological target: ACAT (acyl-CoA:cholesterol O-acyltransferase enzyme); experiment: Inhibition of ACAT in vitro (technique of H. Chautan et al.); assay type: biochemical; details: read-out: IC50 (50% inhibitory concentration), ACAT inhibition
# Excerpt: The compounds were studied for their inhibitory effect on ACAT and hypocholesterolemic effect in rats on the one hand and for their antioxidant effect on the other hand.
SMILES,IC50 [2] [nM],IC50 [3] [nM],IC50 [4] [nM],ED50 [1] [mg/kg]
"CCCCCCCCCCC(C)(C)C(=O)Nc1c(OC)cc(OC)cc1OC [CI 976, reference compound]",> 10000,100000,,7.2
"CCCCCCCCCCCCSC(C)C(=O)NCC(=O)Nc1cc(C)c(O)c(C)c1C (centres unmarked) [Compound 1, N-(2-n-dodecylthio)propionamido-2',3',5'-trimethyl-4'-hydroxyglycylanilide]",3000,5000,1200,1
"CCCCCCCCCCCCSC(C)C(=O)N(C)CC(=O)Nc1cc(C)c(O)c(C)c1C (stereo not drawn) [Compound 8, N-methyl-N-(α-n-dodecylthio)propionamido-2',3',5'-trimethyl-4'-hydroxyglycylanilide]",500,3000,280,4
"CCCCCCCN(CCCCCSc1nc(-c2ccccc2)c(-c2ccccc2)[nH]1)C(=O)Nc1ccc(F)cc1F [DUP 128, reference compound]",> 10000,30000,,1.4

# More lines, in order of falling IC50 [2], values ahead:
IC50 [2] [nM],IC50 [3] [nM],IC50 [4] [nM],SMILES,ED50 [1] [mg/kg]
500,1000,740,"CCCCCCCCCCCCC(C)(C)C(=O)NCC(=O)Nc1cc(C)c(O)c(C)c1C [Compound 2, N-(α,α,-dimethyl)tetradecanamido-2',3',5'-trimethyl-4'-hydroxyglycylanilide]",3
500,5000,160,"CCCCCCCCCCCCSC(C)(C)C(=O)N(C)CC(=O)Nc1cc(C)c(O)c(C)c1C [Compound 3, N-methyl-N-(α-n-dodecylthio)isobutyramido-2',3',5'-trimethyl-4'-hydroxyglycylanilide]",< 2.5
300,3000,620,"CCCCCCCCCCCCSC(C)(C)C(=O)NCC(=O)Nc1cc(C)c(O)c(C)c1C [Compound 5, N-(α-n-dodecylthio)isobutyramido-2',3',5'-trimethyl-4'-hydroxyglycylanilide]",2.5
